Experimental data from US5223421A, “Identification of methionine Nα-acetyltransferase” (The General Hospital Corporation, priority 1990, dated 1993).
Entries after “also recorded” stand apart in the source; their conditions may differ. Where two headings read alike, the source gives them in different places.

Experiments:
[1] = test system: methionine N^α -acetyltransferase from S. cerevisiae; assay type: biochemical, Saccharomyces cerevisiae; details: for effect of ion or salt on M-N^α AT activity: concentration not given; for Enzyme Activity (%): 5 min room temperature, 50 mM HEPES pH 7.4, 1 mM DTT, substrate PAI (N=3)
Procedure: (§1) N^α -acetyltransferase activity was determined as previously described [Lee et al., J. Biol. Chem. 263:14948-14955 (1988)]. Aliquots of the lysate or chromatographic fractions were added to 1.5 ml Eppendorf tubes containing a reaction mixture of 50 mM HEPES, pH 7.4, 150 mM KCl, 1 mM DTT, 25 μM [^3 H] acetyl coenzyme A (0.5 μCi) and 50 μM synthetic peptide with an adjusted final volume of 100 μl. The assay mixture was incubated at 30° C. for 30 min. The reaction was stopped by adding 17 μl of 0.5M acetic acid and chilled in an ice bath. The reaction samples were filtered through SP membrane discs (Cuno) (previously pre-swollen in 0.5M acetic acid), and then washed three times with 1 ml of 0.5M acetic acid on a Millipore 1225 sampling manifold. The partially dried membranes were placed in scintillation cocktail and counted with a Beckman LS 3801 scintillation counter.
Yeast methionine acetyltransferase was incubated in the presence of various divalent cations at a room temperature for 5 min in 50 mM HEPES, pH 7.4 containing 1 mM DTT. The enzyme activity was determined under standard assay conditions using PAI (N=3), as described above.

[2] = target: T1, yeast N^α AT (Saccharomyces cerevisiae, UniProt P07347+P12945); assay: Effect of ions and reagents on yeast N^α AT (comparison in the discussion); assay type: biochemical
T1 sequence (P12945 2-854 limits assumed): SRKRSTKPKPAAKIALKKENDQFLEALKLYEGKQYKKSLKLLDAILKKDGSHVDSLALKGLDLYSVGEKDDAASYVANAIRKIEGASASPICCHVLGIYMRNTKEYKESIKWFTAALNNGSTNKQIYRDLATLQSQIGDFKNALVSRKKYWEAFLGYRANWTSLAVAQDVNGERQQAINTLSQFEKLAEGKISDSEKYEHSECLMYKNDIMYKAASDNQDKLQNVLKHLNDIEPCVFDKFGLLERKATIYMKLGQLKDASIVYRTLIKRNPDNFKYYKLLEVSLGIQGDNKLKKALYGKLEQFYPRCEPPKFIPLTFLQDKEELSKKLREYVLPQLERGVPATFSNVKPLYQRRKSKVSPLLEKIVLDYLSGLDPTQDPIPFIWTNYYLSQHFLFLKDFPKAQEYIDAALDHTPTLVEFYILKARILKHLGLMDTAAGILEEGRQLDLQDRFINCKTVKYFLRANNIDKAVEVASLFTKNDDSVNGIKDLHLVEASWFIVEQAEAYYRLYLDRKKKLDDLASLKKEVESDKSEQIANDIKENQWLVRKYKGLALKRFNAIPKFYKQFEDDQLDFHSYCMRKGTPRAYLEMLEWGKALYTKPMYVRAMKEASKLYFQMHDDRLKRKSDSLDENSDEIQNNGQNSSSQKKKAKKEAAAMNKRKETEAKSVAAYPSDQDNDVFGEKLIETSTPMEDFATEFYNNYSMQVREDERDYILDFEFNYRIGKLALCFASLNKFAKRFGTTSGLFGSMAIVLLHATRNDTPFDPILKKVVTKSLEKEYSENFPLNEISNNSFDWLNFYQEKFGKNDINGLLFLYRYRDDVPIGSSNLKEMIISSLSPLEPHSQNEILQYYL
T1 sequence (P07347 1-238): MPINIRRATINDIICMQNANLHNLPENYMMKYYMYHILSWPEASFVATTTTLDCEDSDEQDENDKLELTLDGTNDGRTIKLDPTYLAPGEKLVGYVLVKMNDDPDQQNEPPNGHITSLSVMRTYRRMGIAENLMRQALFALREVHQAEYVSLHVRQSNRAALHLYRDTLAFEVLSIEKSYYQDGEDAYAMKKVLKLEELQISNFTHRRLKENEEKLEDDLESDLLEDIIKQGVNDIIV

[3] = test system: yeast M-N^α -acetyltransferase; assay: Effect of KCl or NaCl on enzyme activity; assay type: biochemical, Saccharomyces cerevisiae; details: for reduction in enzyme activity: enzyme assay performed at 0.8M, 800000 µM; for effect on enzyme activity: up to 0.5M in the assay
Procedure: as §1, with “counter. One unit of activity was defined as the amount of enzyme able to transfer 1 pmol of [^3 H] acetyl group from [^3 H] acetyl coenzyme A to synthetic peptide per min under standard enzyme assay conditions defined above.” for “counter.”

[4] = test system: methionine N^α -acetyltransferase from S. cerevisiae; assay: Effect of protein modification reagents on enzyme activity; assay type: biochemical, Saccharomyces cerevisiae; details: for Enzyme Activity (%): 30° C. 15 min, then dialyzed, substrate PAI (N=3)
Procedure: as §1, with “counter. One unit of activity was defined as the amount of enzyme able to transfer 1 pmol of [^3 H] acetyl group from [^3 H] acetyl coenzyme A to synthetic peptide per min under standard enzyme assay conditions defined above.” for “counter.”
In order to determine the possible catalytic role for different types of amino acid residues in the enzyme, various chemical modifications were carried out (Table 10). Yeast methionine acetyltransferase was incubated with each reagent at 30° C. for 15 min, dialyzed against 50 mM HEPES, pH 7.4, 150 mM, 1 mM DTT at 4° C. for 3 to 4 hr. The enzyme activity was determined under standard assay conditions using PAI (N=3), assayed as described above.

[5] = test system: N^α -acetyltransferase activity of crude yeast lysate, wild-type (AAA1) strain T3A; assay: N^α -acetylation of peptide substrates by crude yeast lysate, wild-type strain; assay type: biochemical, Saccharomyces cerevisiae; details: crude lysate of wild-type strain T3A; mean ± SD (N=3-5); normalized to human adrenocorticotropic hormone (1-24); 50 μM peptide
Procedure: as §1, with “counter. One unit of activity was defined as the amount of enzyme able to transfer 1 pmol of [^3 H] acetyl group from [^3 H] acetyl coenzyme A to synthetic peptide per min under standard enzyme assay conditions defined above.” for “counter.”
(§2) The wild-type (containing endogenous N^α -acetyltransferase activity) and the aaa1 (lacking endogenous N^α -acetyltransferase activity) strains were T3A and T3A-a, respectively (Lee, F-J. S., et al., J. Bacteriol. 171, 5795-5802 (1989)). Human adrenocorticotropic hormone (1-24), yeast alcohol dehydrogenase (1-24), and human superoxide dismutase (1-24) have either serine or alanine as amino-terminal residues, while proteinase A inhibitor 3 has a methionine residue. The synthesis of the peptide substrates, the preparation of the crude yeast homogenate, and the assay of enzyme activity were as previously described by Lee et al. (Lee, F-J. S., et al., J. Biol. Chem. 263:14948 (1988); Kamitani, K., et al., J. Biol. Chem. 264:13188 (1989)). The numbers in parentheses refer to the residue numbers, and the letters in parentheses specify the amino acid sequence. Abbreviations: A (alanine), C (cysteine), D (aspartic acid), E (glutamic acid), F (phenylalanine), G (glycine), H (histidine), I (isoleucine), K (lysine), L (leucine), M (methionine), N (asparagine), P (proline), Q (glutamine), R (arginine), S (serine), T (threonine), V (valine), W (tryptophan). Data are reported as mean activity±SD (N=3-5) and are normalized to the activity of the homogenate towards human adrenocorticotropic hormone (1-24).

[6] = target: T2, N^α -acetyltransferase activity of crude yeast lysate, aaa1 mutant strain T3A-a (Saccharomyces cerevisiae, UniProt Q06504); assay: N^α -acetylation of peptide substrates by crude yeast lysate, aaa1 mutant strain; assay type: biochemical; details: crude lysate of aaa1 mutant strain T3A-a; mean ± SD (N=3-5); normalized to human adrenocorticotropic hormone (1-24); 50 μM peptide
T2 construct: a crude yeast homogenate from the aaa1 mutant strain; endogenous in cells; host or cells: Saccharomyces cerevisiae strain T3A-a (aaa1), crude lysate
T2 sequence (Q06504 1-195): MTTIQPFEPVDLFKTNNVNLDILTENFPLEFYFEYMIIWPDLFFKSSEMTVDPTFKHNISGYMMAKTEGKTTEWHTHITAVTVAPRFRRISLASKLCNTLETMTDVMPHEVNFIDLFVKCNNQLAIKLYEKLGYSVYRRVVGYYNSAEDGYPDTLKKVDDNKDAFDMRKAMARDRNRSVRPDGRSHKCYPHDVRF
T2 sequence (Q12387 1-796 partner): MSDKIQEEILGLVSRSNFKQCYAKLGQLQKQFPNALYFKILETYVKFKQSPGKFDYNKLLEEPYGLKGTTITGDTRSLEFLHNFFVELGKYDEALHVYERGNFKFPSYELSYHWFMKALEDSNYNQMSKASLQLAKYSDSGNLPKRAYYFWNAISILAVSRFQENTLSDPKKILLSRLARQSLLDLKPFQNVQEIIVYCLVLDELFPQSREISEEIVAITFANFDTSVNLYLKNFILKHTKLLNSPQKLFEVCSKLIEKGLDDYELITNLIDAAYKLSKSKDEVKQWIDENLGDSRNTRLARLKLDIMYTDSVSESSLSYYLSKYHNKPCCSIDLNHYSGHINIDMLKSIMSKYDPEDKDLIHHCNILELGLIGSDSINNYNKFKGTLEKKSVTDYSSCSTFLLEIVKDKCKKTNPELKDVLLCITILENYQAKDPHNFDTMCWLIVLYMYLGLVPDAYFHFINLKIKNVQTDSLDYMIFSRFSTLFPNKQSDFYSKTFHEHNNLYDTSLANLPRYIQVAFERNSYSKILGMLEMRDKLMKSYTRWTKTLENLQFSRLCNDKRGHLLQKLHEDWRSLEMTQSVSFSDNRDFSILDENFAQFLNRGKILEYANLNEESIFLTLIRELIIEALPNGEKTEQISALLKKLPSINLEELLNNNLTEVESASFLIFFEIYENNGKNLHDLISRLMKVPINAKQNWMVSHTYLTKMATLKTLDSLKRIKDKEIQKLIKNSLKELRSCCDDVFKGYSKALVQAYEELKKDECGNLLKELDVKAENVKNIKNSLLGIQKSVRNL
Procedure: as §1, with “counter. One unit of activity was defined as the amount of enzyme able to transfer 1 pmol of [^3 H] acetyl group from [^3 H] acetyl coenzyme A to synthetic peptide per min under standard enzyme assay conditions defined above.” for “counter.”
as §2

O=S(=O)([O-])[O-].[Cu+2] [CuSO4]
effect of ion or salt on M-N^α AT activity ([1]; listed as Cu^2+): pronounced and concentration-dependent inhibition; also recorded: inhibited markedly | Enzyme Activity (%) ([1]; salt 0.1 mM): 65% | Enzyme Activity (%) ([1]; salt 1 mM): 0% | effect of ion on N^α AT activity [2]: inhibited markedly

[Cl-].[K+] [KCl]
reduction in enzyme activity [3]: 50% | effect on enzyme activity [3]: did not affect the enzyme activity

CCN1C(=O)C=CC1=O [NEM, N-ethylmaleimide]
effect of reagent on M-N^α AT activity ([4]; 0.5 mM): partial inactivation | effect of reagent on M-N^α AT activity ([4]; concentration not given): inability | Enzyme Activity (%) ([4]; reagent 0.5 mM): 77% | Enzyme Activity (%) ([4]; reagent 5.0 mM): 20% | effect of reagent on N^α AT activity [2]: inability

[Cl-].[Na+] [NaCl]
reduction in enzyme activity [3]: 50% | effect on enzyme activity [3]: did not affect the enzyme activity

O=S(=O)([O-])[O-].[Zn+2] [ZnSO4]
effect of ion or salt on M-N^α AT activity ([1]; listed as Zn^2+): pronounced and concentration-dependent inhibition; also recorded: inhibited markedly | Enzyme Activity (%) ([1]; salt 0.01 mM): 95% | Enzyme Activity (%) ([1]; salt 0.1 mM): 52% | Enzyme Activity (%) ([1]; salt 1 mM): 0% | effect of ion on N^α AT activity [2]: inhibited markedly

Cl [chloride ion]
effect of ion or salt on M-N^α AT activity [1]: neither M-N^α AT nor N^α AT were activated | effect of ion on N^α AT activity [2]: neither M-N^α AT nor N^α AT were activated

O=C(O)c1cc[c]([Hg][Cl])cc1 [pCMB, p-chloromercuribenzoate]
effect of reagent on M-N^α AT activity ([4]; 1 mM): without effect | effect of reagent on M-N^α AT activity ([4]; 10 mM): partial inactivation | effect of reagent on M-N^α AT activity ([4]; concentration not given): inability | Enzyme Activity (%) ([4]; reagent 1.0 mM): 94% | Enzyme Activity (%) ([4]; reagent 10.0 mM): 25% | effect of reagent on N^α AT activity [2]: inability

ATKAVCVLKGDGPVQGSINFEQKE (ATKAVCVLKGDGPVQGSINFEQKE) [Superoxide dismutase (1-24) (Human)]
Activity (%) AAA1 [5]: 80 ± 6% | Activity (%) aaa1 [6]: 0%
